Assays:
Test in all cases: Kinase binding assay (kinase-tagged T7 phage, affinity beads, qPCR), Kd
FGFR1 = biological target: T1, FGFR1 (Homo sapiens, UniProt P11362); conditions: read-out: FGFR1 (Kd nM)
T1 construct: made in house; host or cells: E. coli (BL21-derived), T7 phage
Procedure: (§1) Kinase-tagged T7 phage strains were prepared in an E. coli host derived from the BL21 strain. E. coli were grown to log-phase and infected with T7 phage and incubated with shaking at 32° C. until lysis. The lysates were centrifuged and filtered to remove cell debris. Streptavidin-coated magnetic beads were treated with biotinylated small molecule ligands for 30 minutes at room temperature to generate affinity resins for kinase assays. The liganded beads were blocked with excess biotin and washed with blocking buffer SeaBlock (Pierce), 1% BSA, 0.05% Tween 20, 1 mM DTT to remove unbound ligand and to reduce non-specific binding.
(§2) Test compounds were prepared as 111× stocks in 100% DMSO. Kds were determined using an 11-point 3-fold compound dilution series with three DMSO control points. […] The compounds were then diluted directly into the assays such that the final concentration of DMSO was 0.9%. All reactions performed in polypropylene 384-well plate. Each was a final volume of 0.02 ml. […] The kinase concentration in the eluates was measured by qPCR.
(§3) Binding constants were calculated with a standard dose-response curve using the Hill equation: […]
(§4) The Hill Slope was set to −1. Curves were fitted using a non-linear least square fit with the Levenberg-Marquardt algorithm.

FGFR2 = biological target: T2, FGFR2 (Homo sapiens, UniProt P21802); conditions: read-out: FGFR2 (Kd nM)
T2 construct: made in house; host or cells: E. coli (BL21-derived), T7 phage
T2 sequence (P21802 22-821): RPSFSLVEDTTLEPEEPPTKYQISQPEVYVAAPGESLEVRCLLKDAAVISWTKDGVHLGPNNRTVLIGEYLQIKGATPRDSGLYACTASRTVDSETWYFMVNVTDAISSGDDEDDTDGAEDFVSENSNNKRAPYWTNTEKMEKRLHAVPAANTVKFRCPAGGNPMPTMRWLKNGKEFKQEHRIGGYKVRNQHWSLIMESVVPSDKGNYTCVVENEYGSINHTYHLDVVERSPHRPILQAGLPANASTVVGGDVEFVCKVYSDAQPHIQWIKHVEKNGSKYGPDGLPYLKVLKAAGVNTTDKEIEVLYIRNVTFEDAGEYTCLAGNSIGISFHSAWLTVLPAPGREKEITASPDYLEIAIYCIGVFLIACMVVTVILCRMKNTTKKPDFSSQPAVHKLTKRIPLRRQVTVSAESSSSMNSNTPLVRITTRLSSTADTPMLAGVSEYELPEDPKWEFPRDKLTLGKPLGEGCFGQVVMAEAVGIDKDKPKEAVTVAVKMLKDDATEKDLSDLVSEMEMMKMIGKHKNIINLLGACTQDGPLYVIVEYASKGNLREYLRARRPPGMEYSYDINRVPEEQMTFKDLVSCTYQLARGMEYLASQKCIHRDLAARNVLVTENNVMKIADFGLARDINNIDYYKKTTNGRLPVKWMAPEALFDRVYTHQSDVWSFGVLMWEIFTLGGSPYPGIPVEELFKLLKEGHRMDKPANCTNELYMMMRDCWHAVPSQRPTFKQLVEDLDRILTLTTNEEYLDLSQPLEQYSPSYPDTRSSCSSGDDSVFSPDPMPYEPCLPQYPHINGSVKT
Procedure: as §1, §2, §3, §4

FGFR3 = biological target: T3, FGFR3 (Homo sapiens, UniProt P22607); conditions: read-out: FGFR3 (Kd nM)
T3 construct: made in house; host or cells: E. coli (BL21-derived), T7 phage
T3 sequence (P22607 23-806): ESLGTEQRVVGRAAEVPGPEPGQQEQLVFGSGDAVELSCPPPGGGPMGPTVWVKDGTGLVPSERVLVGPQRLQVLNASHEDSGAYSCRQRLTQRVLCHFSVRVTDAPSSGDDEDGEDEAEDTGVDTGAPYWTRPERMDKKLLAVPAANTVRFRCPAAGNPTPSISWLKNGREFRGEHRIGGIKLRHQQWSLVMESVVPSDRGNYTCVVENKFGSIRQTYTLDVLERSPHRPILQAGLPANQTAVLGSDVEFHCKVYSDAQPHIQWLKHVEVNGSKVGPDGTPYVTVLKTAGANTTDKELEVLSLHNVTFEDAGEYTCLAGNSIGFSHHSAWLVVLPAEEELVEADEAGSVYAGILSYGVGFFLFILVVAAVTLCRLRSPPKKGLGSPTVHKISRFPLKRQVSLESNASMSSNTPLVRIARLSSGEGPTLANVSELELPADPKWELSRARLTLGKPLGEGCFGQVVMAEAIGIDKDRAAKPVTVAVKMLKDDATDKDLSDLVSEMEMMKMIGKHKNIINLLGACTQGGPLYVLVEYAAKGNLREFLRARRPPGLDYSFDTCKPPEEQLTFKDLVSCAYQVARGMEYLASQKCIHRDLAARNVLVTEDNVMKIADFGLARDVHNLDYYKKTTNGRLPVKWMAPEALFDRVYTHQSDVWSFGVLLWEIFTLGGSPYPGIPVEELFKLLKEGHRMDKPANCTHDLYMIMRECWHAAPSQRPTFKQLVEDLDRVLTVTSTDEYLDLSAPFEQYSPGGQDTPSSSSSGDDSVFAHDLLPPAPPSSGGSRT
Procedure: as §1, §2, §3, §4

FGFR3 (V555M) = biological target: T4, FGFR3 (V555M) (Homo sapiens, UniProt P22607, V555M); conditions: V555M mutant; read-out: FGFR3 (V555M) (Kd nM)
T4 construct: made in house; host or cells: E. coli (BL21-derived), T7 phage
T4 sequence (P22607 23-806 V555M): as the sequence (P22607 23-806) above, with V533M counted along it
Procedure: as §1, §2, §3, §4

FGFR4 = biological target: T5, FGFR4 (Homo sapiens, UniProt P22455); conditions: read-out: FGFR4 (Kd nM)
T5 construct: made in house; host or cells: E. coli (BL21-derived), T7 phage
T5 sequence (P22455 22-802): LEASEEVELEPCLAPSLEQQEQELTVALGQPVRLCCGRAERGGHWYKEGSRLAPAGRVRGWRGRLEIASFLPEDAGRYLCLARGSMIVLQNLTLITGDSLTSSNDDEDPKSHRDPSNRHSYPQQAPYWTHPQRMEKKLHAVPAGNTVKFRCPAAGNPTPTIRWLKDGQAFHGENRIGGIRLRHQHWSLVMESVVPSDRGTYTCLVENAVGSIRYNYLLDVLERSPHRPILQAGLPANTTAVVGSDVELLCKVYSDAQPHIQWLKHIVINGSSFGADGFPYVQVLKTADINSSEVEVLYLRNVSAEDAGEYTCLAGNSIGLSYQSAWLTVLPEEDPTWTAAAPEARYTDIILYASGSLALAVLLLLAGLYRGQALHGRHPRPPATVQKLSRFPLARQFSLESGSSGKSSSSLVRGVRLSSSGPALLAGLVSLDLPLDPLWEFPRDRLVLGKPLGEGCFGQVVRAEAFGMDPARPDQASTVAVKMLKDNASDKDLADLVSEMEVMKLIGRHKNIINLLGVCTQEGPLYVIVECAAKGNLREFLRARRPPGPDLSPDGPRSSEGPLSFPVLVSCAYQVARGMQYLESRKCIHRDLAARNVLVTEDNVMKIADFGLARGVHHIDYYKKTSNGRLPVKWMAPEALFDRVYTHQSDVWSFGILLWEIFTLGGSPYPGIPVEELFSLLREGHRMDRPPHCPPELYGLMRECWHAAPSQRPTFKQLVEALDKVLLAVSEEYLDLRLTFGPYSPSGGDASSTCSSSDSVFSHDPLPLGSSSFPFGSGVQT
Procedure: as §1, §2, §3, §4

T1 sequence (P11362 22-822): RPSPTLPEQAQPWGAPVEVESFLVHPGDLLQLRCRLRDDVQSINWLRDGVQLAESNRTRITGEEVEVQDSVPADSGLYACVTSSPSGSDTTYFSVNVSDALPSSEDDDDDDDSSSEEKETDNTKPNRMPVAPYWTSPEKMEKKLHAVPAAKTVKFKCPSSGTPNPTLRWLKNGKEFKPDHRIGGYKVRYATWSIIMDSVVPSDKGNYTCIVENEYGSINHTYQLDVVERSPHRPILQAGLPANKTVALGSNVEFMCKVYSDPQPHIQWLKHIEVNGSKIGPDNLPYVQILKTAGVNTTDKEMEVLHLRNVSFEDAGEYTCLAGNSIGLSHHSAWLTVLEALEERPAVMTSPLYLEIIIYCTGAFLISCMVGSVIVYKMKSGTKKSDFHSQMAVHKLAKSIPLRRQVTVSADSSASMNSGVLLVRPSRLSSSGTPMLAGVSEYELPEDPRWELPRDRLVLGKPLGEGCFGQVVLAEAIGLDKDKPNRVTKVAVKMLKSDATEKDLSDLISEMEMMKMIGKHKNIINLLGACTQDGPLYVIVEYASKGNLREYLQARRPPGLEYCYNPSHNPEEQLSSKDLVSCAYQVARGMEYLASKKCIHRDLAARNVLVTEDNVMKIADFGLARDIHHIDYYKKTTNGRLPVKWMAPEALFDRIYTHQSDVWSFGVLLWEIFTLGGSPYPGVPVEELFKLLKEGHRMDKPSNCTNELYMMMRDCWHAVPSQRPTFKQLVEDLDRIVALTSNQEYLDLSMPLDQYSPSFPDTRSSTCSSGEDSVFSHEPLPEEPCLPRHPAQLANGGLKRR

Structure (SMILES) | Kd (FGFR1) [nM] | Kd (FGFR2) [nM] | Kd (FGFR3) [nM] | Kd (FGFR3 (V555M)) [nM] | Kd (FGFR4) [nM]
C[C@@H](Oc1ccc2[nH]nc(-c3cnc(N4CC(C)(CNCCO)C4)c(F)c3)c2c1)c1c(Cl)cncc1Cl [Example 178, (R)-2-(((1-(5-(5-(1-(3,5-dichloro-pyridin-4-yl)ethoxy)-1H-indazol-3-yl)-3-fluoropyridin-2-yl)-3-methylazetidin-3-yl)methyl)amino) ethanol] | 1 to 50 | 1 to 50 | 1 to 50 | 1 to 50 | 1 to 50
COc1cc2[nH]nc(-c3cnc(N4CC(C)(CNC(C)C)C4)nc3)c2cc1O[C@H](C)c1c(Cl)cncc1Cl [Example 84, (R)-N-((1-(5-(5-(1-(3,5-dichloropyridin-4-yl)ethoxy)-6-methoxy-1H-indazol-3-yl)pyrimidin-2-yl)-3-methylazetidin-3-yl)methyl)propan-2-amine] | 1 to 50 | 1 to 50 | 1 to 50 | 1 to 50 | 1 to 50
C[C@@H](Oc1ccc2[nH]nc(-c3cnc(N4CC(C)(N5CCOCC5)C4)c(F)c3)c2c1F)c1c(Cl)cncc1Cl [Example 183, (R)-4-(1-(5-(5-(1-(3,5-dichloro-pyridin-4-yl)ethoxy)-4-fluoro-1H-indazol-3-yl)-3-fluoropyridin-2-yl)-3-methylazetidin-3-yl)morpholine] | 300 to 1000 | > 1000 | 50 to 300 | 50 to 300 | 50 to 300
C[C@@H](Oc1ccc2[nH]nc(-c3cnc(N4CC(C)(N5CCCC5)C4)c(F)c3)c2c1)c1c(Cl)cncc1Cl [Example 107, (R)-5-(1-(3,5-dichloropyridin-4-yl)ethoxy)-3-(5-fluoro-6-(3-methyl-3-(pyrrolidin-1-yl)azetidin-1-yl)pyridin-3-yl)-1H-indazole] | 1 to 50 | 1 to 50 | 1 to 50 | 1 to 50 | 1 to 50
C[C@@H](Oc1cc2c(-c3cnc(N4CC(C)(CN5CCCC5)C4)c(C#N)c3)n[nH]c2cc1F)c1c(Cl)cncc1Cl [Example 317, (R)-5-(5-(1-(3,5-dichloropyridin-4-yl)ethoxy)-6-fluoro-1H-indazol-3-yl)-2-(3-methyl-3-(pyrrolidin-1-ylmethyl)azetidin-1-yl)nicotinonitrile] | 50 to 300 | 50 to 300 | 1 to 50 | 1 to 50 | 1 to 50
C[C@H](O)CNC1(C)CN(c2ncc(-c3n[nH]c4ccc(O[C@H](C)c5c(Cl)cncc5Cl)c(F)c34)cc2F)C1 [Example 176, (S)-1-((1-(5-(5-((R)-1-(3,5-dichloropyridin-4-yl)ethoxy)-4-fluoro-1H-indazol-3-yl)-3-fluoropyridin-2-yl)-3-methylazetidin-3-yl)amino)propan-2-ol] | 300 to 1000 | > 1000 | 50 to 300 | 50 to 300 | 50 to 300
C[C@@H](Oc1ccc2[nH]nc(-c3cnc(N4CC(C)(N5CCCC5)C4)c(F)c3)c2c1F)c1c(Cl)cncc1Cl [Example 168, (R)-5-(1-(3,5-dichloropyridin-4-yl)ethoxy)-4-fluoro-3-(5-fluoro-6-(3-methyl-3-(pyrrolidin-1-yl)azetidin-1-yl)pyridin-3-yl)-1H-indazole] | 50 to 300 | 50 to 300 | 1 to 50 | 1 to 50 | 50 to 300
COc1cc2[nH]nc(-c3cnc(N4CC(C)(NCCO)C4)nc3)c2cc1O[C@H](C)c1c(Cl)cncc1Cl [Example 86, (R)-2-((1-(5-(5-(1-(3,5-dichloropyridin-4-yl)ethoxy)-6-methoxy-1H-indazol-3-yl)pyrimidin-2-yl)-3-methylazetidin-3-yl)amino)ethan-1-ol] | 1 to 50 | 1 to 50 | 1 to 50 | 1 to 50 | 1 to 50
C[C@@H](Oc1cc2c(-c3cnc(N4CC(C)(NCCO)C4)c(F)c3)n[nH]c2cc1F)c1c(Cl)cncc1Cl [Example 165] | 1 to 50 | 1 to 50 | 1 to 50 | 1 to 50 | 1 to 50
C[C@@H](Oc1ccc2[nH]nc(-c3ccc(N4CC(C)(OCCO)C4)nc3)c2c1)c1c(Cl)cncc1Cl [Example 92, (R)-2-((1-(5-(5-(1-(3,5-dichloropyridin-4-yl)ethoxy)-1H-indazol-3-yl)pyridin-2-yl)-3-methylazetidin-3-yl)oxy)ethan-1-ol] | 1 to 50 | 1 to 50 | 1 to 50 | 1 to 50 | 1 to 50
COc1cc2[nH]nc(-c3cnc(N4CCC4)c(F)c3)c2cc1O[C@H](C)c1c(Cl)cnc(C)c1Cl [Example 58, 3-[6-(azetidin-1-yl)-5-fluoro-3-pyridyl]-5-[(1R)-1-(3,5-dichloro-2-methyl-4-pyridyl)ethoxy]-6-methoxy-1H-indazole] | 50 to 300 | 1 to 50 | 1 to 50 | 1 to 50 | 1 to 50
Cc1ncc(Cl)c([C@@H](C)Oc2ccc3[nH]nc(-c4cnc(N5CC(C)(NC(C)C)C5)c(F)c4)c3c2)c1Cl [Example 221, 1-[5-[5-[(1R)-1-(3,5-dichloro-2-methyl-4-pyridyl)ethoxy]-1H-indazol-3-yl]-3-fluoro-2-pyridyl]-N-isopropyl-3-methyl-azetidin-3-amine] | 1 to 50 | 1 to 50 | 1 to 50 | 1 to 50 | 1 to 50
C=CCNC1(C)CN(c2ncc(-c3n[nH]c4ccc(O[C@H](C)c5c(Cl)cncc5Cl)cc34)cn2)C1 [Example 234, (R)-N-ally1-1-(5-(5-(1-(3,5-dichloropyridin-4-yl)ethoxy)-1H-indazol-3-yl)pyrimidin-2-yl)-3-methylazetidin-3-amine] | 1 to 50 | 1 to 50 | 1 to 50 | 1 to 50 | 1 to 50

Next, values leading:

Kd (FGFR1) [nM] | Kd (FGFR2) [nM] | Kd (FGFR3) [nM] | Kd (FGFR3 (V555M)) [nM] | Kd (FGFR4) [nM] | Structure (SMILES)
> 1000 | 300 to 1000 | 50 to 300 | 50 to 300 | 300 to 1000 | C[C@@H](Oc1ccc2[nH]nc(-c3ccc(N4CC(C)(CP(C)(C)=O)C4)nc3)c2c1F)c1c(Cl)cncc1Cl [Example 187, (R)-((1-(5-(5-(1-(3,5-dichloro-pyridin-4-yl)ethoxy)-4-fluoro-1H-indazol-3-yl)pyridin-2-yl)-3-methylazetidin-3-yl)methyl)dimethyl-phosphine oxide]
> 1000 | > 1000 | > 1000 | 300 to 1000 | 1 to 50 | C[C@@H](Oc1ccc2[nH]nc(-c3cnc(N4CC(C)(CP(C)(C)=O)C4)c(C#N)c3)c2c1F)c1c(Cl)cncc1Cl [Example 323, (R)-5-(5-(1-(3,5-dichloropyridin-4-yl)ethoxy)-4-fluoro-1H-indazol-3-yl)-2-(3-((dimethyl-phosphoryl)methyl)-3-methylazetidin-1-yl)nicotinonitrile]
> 1000 | > 1000 | > 1000 | > 1000 | 1 to 50 | CC(C)NCC1(C)CN(c2ncc(-c3n[nH]c4ccc(O[C@H](C)c5c(Cl)cncc5Cl)c(F)c34)cc2C#N)C1 [Example 326, (R)-5-(5-(1-(3,5-dichloropyridin-4-yl)ethoxy)-4-fluoro-1H-indazol-3-yl)-2-(3-((isopropylamino)methyl)-3-methylazetidin-1-yl)nicotinonitrile]
1 to 50 | 1 to 50 | 1 to 50 | 1 to 50 | 1 to 50 | CNC1(C)CN(c2ccc(-c3n[nH]c4ccc(O[C@H](C)c5c(Cl)cncc5Cl)cc34)cn2)C1 [Example 233, (R)-1-(5-(5-(1-(3,5-dichloropyridin-4-yl)ethoxy)-1H-indazol-3-yl)pyridin-2-yl)-N,3-dimethylazetidin-3-amine]
1 to 50 | 1 to 50 | 1 to 50 | 1 to 50 | 1 to 50 | COc1cc2[nH]nc(-c3cnc(N4CC(C)(CP(C)(C)=O)C4)c(F)c3)c2cc1O[C@H](C)c1c(Cl)cncc1Cl [Example 179, (R)-((1-(5-(5-(1-(3,5-dichloro-pyridin-4-yl)ethoxy)-6-methoxy-1H-indazol-3-yl)-3-fluoropyridin-2-yl)-3-methylazetidin-3-yl)methyl)dimethyl-phosphine oxide]
1 to 50 | 1 to 50 | 1 to 50 | 1 to 50 | 1 to 50 | CC(C)NCC1(C)CN(c2ccc(-c3n[nH]c4cc(F)c(O[C@H](C)c5c(Cl)cncc5Cl)cc34)cn2)C1 [Example 189, (R)-N-((1-(5-(5-(1-(3,5-dichloro-pyridin-4-yl)ethoxy)-6-fluoro-1H-indazol-3-yl)pyridin-2-yl)-3-methylazetidin-3-yl)methyl)propan-2-amine]
1 to 50 | 1 to 50 | 1 to 50 | 1 to 50 | 1 to 50 | CCNC1(C)CN(c2ccc(-c3n[nH]c4ccc(O[C@H](C)c5c(Cl)cncc5Cl)cc34)cn2)C1 [Example 239, 1-[5-[5-[(1R)-1-(3,5-dichloro-4-pyridyl)ethoxy]-1H-indazol-3-yl]-2-pyridyl]-N-ethyl-3-methyl-azetidin-3-amine]

Source: patent publication US20250368666A1, “INDAZOLE COMPOUNDS” (TYRA BIOSCIENCES, INC., priority 2022, published 2025)
